Measured values published in PMC8305768, “Design, Synthesis and Antiparasitic Evaluation of Click Phospholipids” (Molecules, 2021).
Counter-ions that a name gives are not always drawn.

How the values were obtained:
[1] = tested on: L. donovani strain BPK190 amastigotes; assay: Activity against L. donovani intramacrophage amastigotes (bone marrow-derived macrophages, qPCR); format: cell-based, Leishmania donovani; conditions: infected bone marrow-derived macrophages, 48 h; for inhibition of growth at 5 µM: Leishmania donovani, Macrophage, read-out: Parassite Load Reduction (%)
Method: L. donovani strain BPK 190 [55] was cultivated at 25 °C in modified Medium199 (Sigma-Aldrich, with 20% heat-inactivated FCS, 40 mM HEPES pH 7.4, 0.2% NaHCO3, 100 μM adenin, 1.2 μg/mL 6-biopterin and 10 μg/mL haem, with 1 × Pen/Strep/l-glutamine (Sigma, Saint Louis, MI, USA), pH 7.0).
Activity against L. donovani strain BPK190 was tested in vitro using bone marrow-derived macrophages as host cells. Infection was established for 24 h prior to the addition of compounds from 10 mM stocks in DMSO. Parasite load was determined 48 h later by quantifying Leishmania actin DNA relative to mouse actin DNA using real time qPCR as described.

[2] = Early ADMET profiling panel, overall; conditions: 10 μM; except for toxicity against THP1 macrophages
Description: Early ADMET profiling: The early ADMET profiling of the new derivatives involved a group of assays widely used in drug development as part of the preclinical in vitro toxicity studies. In particular our panel included hERG inhibition, five cytochromes P450 (CYP1A2, CYP2C9, CYP2C19, CYP2D6 and CYP3A4), two cell-lines (A549, epithelial human lung adenocarcinoma, WI38 and foetal lung fibroblasts), Aurora B kinase and mitochondrial toxicity, in addition to the parasite relevant toxicity against THP1 macrophages. The compounds were tested at 10 μΜ, whilst the miltefosine control was tested at 10 μΜ or 1 μM. The toxicity of the new click phospholipids is depicted in Figure 3 in a traffic light format (from red through yellow to green for decreasing ADMET liabilities).
Cytotoxicity assay: A549 cells and WI-38 cells were grown on surface-modified T175 cell culture flasks in Dulbecco’s modified Eagle medium with 10% foetal calf serum (FCS), streptomycin (100 μg/mL) and 100 U/mL penicillin G. At about 80% confluency, cells were washed, trypsinized, resuspended and counted in RPMI-1640 medium before seeding (in triplicate) into white 384-well microtiter plates (20 μL) at 500 cells/well and incubated at 37 °C in the presence of 5% CO2 for 24 h. A total of 20 μL/well of CellTiter-Glo (CTG) reagent (Promega Corp., Madison, WI, USA) was added to each well, and plates were read using an EnVision Multilabel 2103 Reader after a 10-min incubation in the dark. Dose–response assays for compounds made use of 11-point curves. Each test compound (200 nL of 10 mM top concentration in 100% v/v DMSO) was added to cells seeded in polystyrene 384-well cell culture microtiter plates using the Echo 550 Liquid Handler and read after 24 h of incubation at 37 °C in the presence of 5% CO2 using CTG as described above. The compounds/positive control (paclitaxel with final concentration of 10 μM and 1% v/v DMSO) and no compound (final 1% v/v DMSO) were added into the 384-well plates (200 nL/well; 1% v/v DMSO) using the Echo 550 Liquid Handler. The raw luminescence signal of each sample was converted into the percentage of cell growth.
Cytochrome (CYP) P450 inhibition assay: These assays made use of microsomal preparations of CYP450 (1A2, 2C9, 2C19, 2D6 and 3A4) from baculovirus-infected insect cells (Corning Inc., Corning, NY, USA) and cytochrome c reductase (and cytochrome b5 for CYP450 3A4). For detection of CYP450 activity, the luminescence-based P450-Glo (Promega Corp., Madison, WI, USA) assay system was used that contained a luminogenic CYP450 substrate, lyophilized luciferin detection reagent and reconstitution buffer. The substrates were luciferin derivatives of CYP450-specific substrates that produce (4S)-4,5-dihydro-2-(6-hydroxybenzothiazolyl)-4-thiazolecarboxylic acid (D-luciferin) after cleavage by CYP450 (CYP450 3A4, luciferin-IPA; CYP450 2C19, luciferin-H EGE; CYP450 2C9, luciferin-H; CYP450 2D6, luciferin-ME EGE; CYP450 1A2, luciferin-1A2). CYP450 reactions were initiated by addition of the NADPH regeneration system to the enzyme–substrate mixture with the luciferin detection reagent stopping the reaction and the D-luciferin being converted to oxyluciferin under the production of light being proportional to the CYP450 activity. The CYP450 assays were performed using the Tecan Fluent liquid-handling automation platform (Tecan Group Ltd., Mannedorf, Switzerland) in the 384-well assay format. Compounds were added into an empty 384-well plate (100 nL/well in 1% v/v DMSO) using the Echo 550 Liquid Handler followed by the addition of 5 μL/well of the CYP450/substrate mixture and incubation for 30 min at 37 °C, after which the reaction was initiated by the addition of the 5 μL/well NADPH regeneration system. […]

Structure (SMILES): CCCCCc1cn(CCCCCCCCCCCOP(=O)([O-])OCC[N+](C)(C)C)nn1 [Compound 25, 11-(4-pentyl-1H-1,2,3-triazol-1-yl)undecyl (2-(trimethylammonio)ethyl) phosphate inner salt]
- inhibition of growth at 5 µM [1]: 0%
- ADMET liabilities (overall panel) [2]: no liabilities

Structure (SMILES): C[N+](C)(C)CCOP(=O)([O-])OCCCCCCCCCCCn1cc(CC2CCCC2)nn1 [Compound 28, 11-(4-(cyclopentylmethyl)-1H-1,2,3-triazol-1-yl)undecyl (2-(trimethylammo nio)ethyl) phosphate inner salt]
- inhibition of growth at 5 µM [1]: 0%
- ADMET liabilities (overall panel) [2]: no liabilities

Structure (SMILES): C[N+](C)(C)CCOP(=O)([O-])OCCCCCCCCCCCn1cc(CC2CCCCC2)nn1 [Compound 29, 11-(4-(cyclohexylmethyl)-1H-1,2,3-triazol-1-yl)undecyl (2-(trimethylammonio)ethyl) phosphate inner salt]
- inhibition of growth at 5 µM [1]: 41.7%
- ADMET liabilities (overall panel) [2]: no liabilities

Structure (SMILES): C[N+](C)(C)CCOP(=O)([O-])OCCCCCn1cc(CCCCCCCCNC(=O)OCc2ccccc2)nn1 [Compound 31, 5-(4-(8-(((benzyloxy)carbonyl)amino)octyl)-1H-1,2,3-triazol-1-yl)pentyl (2-(trimethylammonio)ethyl) phosphate inner salt]
- inhibition of growth at 5 µM [1]: 59.2%
- ADMET liabilities (overall panel) [2]: no liabilities

Structure (SMILES): C[N+](C)(C)CCOP(=O)([O-])OCCCCCCCCCCCn1cc(CCCCCCCCNC(=O)OCc2ccccc2)nn1 [Compound 32, 11-(4-(8-(((benzyloxy)carbonyl)amino)octyl)-1H-1,2,3-triazol-1-yl)undecyl (2-(trimethylammonio)ethyl) phosphate inner salt]
- Parassite Load Reduction (%) ([1]; 5 μM): abolished the activity
- inhibition of growth at 5 µM [1]: 0.7%

Structure (SMILES): C[N+](C)(C)CCCOP(=O)([O-])OCCCCCCCCCCCn1cc(CC2CCCCC2)nn1 [Compound 33, 11-(4-(cyclohexylmethyl)-1H-1,2,3-triazol-1-yl)undecyl (3-(trimethylammonio)propyl) phosphate inner salt]
- inhibition of growth at 5 µM [1]: 47.8%
- ADMET liabilities (overall panel) [2]: no liabilities

Structure (SMILES): C[N+](C)(C)CCOP(=O)([O-])OCCCCCCCCCCCn1cc(CCCCCCCCC(=O)O)nn1 [Compound 34, 11-(4-(8-carboxyoctyl)-1H-1,2,3-triazol-1-yl)undecyl (2-(trimethylammonio)ethyl) phosphate inner salt]
- inhibition of growth at 5 µM [1]: 43.8%
- ADMET liabilities (overall panel) [2]: no liabilities

Structure (SMILES): C[N+](C)(C)CCOP(=O)([O-])OCCCCCn1cc(CCCCCCCCN)nn1 [Compound 35, 5-(4-(8-aminooctyl)-1H-1,2,3-triazol-1-yl)pentyl (2-(trimethylammonio)ethyl) phosphate inner salt]
- inhibition of growth at 5 µM [1]: 69.1%
- ADMET liabilities (overall panel) [2]: no liabilities

Structure (SMILES): CCCCCCCCc1noc(CCCCCOP(=O)([O-])OCC[N+](C)(C)C)n1 [Compound 53, 5-(3-octyl-1,2,4-oxadiazol-5-yl)pentyl (2-(trimethylammonio)ethyl) phosphate inner salt]
- ADMET liabilities (overall panel) [2]: no liabilities

Structure (SMILES): CCCCCCCc1nnc(CCCCCCCCCCOP(=O)([O-])OCC[N+](C)(C)C)o1 [Compound 65, 10-(5-heptyl-1,3,4-oxadiazol-2-yl)decyl (2-(trimethylammonio)ethyl) phosphate inner salt]
- ADMET liabilities (overall panel) [2]: no liabilities

Structure (SMILES): CCCCCCCCCCCCCCCCOP(=O)([O-])OCC[N+](C)(C)C [Miltefosine, hexadecylphosphocholine, reference compound]
- inhibition of growth at 5 µM [1]: 44.3%
